According to ChEMBL document CHEMBL1201862, “PubChem BioAssay data set” (2004):
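In this assay, cells in 96-well plates receive the compound at five concentrations for 48 hours. Endpoints are linearly interpolated between the surrounding concentrations. GI50 = concentration required for 50% inhibition of growth.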 The source made the active and inactive calls. Rule as the data show it: active = GI50 up to about 1.1 µM and inactive = higher.

Legend:
Test in all cases: NCI tumour cell line growth inhibition, 48 h
K562 = tested on: K562
NCI/ADR-RES = tested on: NCI/ADR-RES
MDA-MB-231 = tested on: MDA-MB-231
SK-MEL-2 = tested on: SK-MEL-2
HCT-15 = tested on: HCT-15
HT-29 = tested on: HT-29
MOLT-4 = tested on: MOLT-4
SK-MEL-5 = tested on: SK-MEL-5
SNB-19 = tested on: SNB-19
EKVX = tested on: EKVX
COLO 205 = tested on: COLO 205
T47D = tested on: T47D
CAKI-1 = tested on: CAKI-1
A549 = tested on: A549
SR = tested on: SR
SF-295 = tested on: SF-295
OVCAR-5 = tested on: OVCAR-5
NCI-H522 = tested on: NCI-H522
HOP-62 = tested on: HOP-62
U-251 = tested on: U-251

Row | Compound | GI50 (K562) | GI50 (NCI/ADR-RES) | GI50 (MDA-MB-231) | GI50 (SK-MEL-2) | GI50 (HCT-15) [µM] | GI50 (HT-29) | GI50 (MOLT-4) | GI50 (SK-MEL-5) | GI50 (SNB-19) | GI50 (EKVX) | GI50 (COLO 205) | GI50 (T47D) | GI50 (CAKI-1) | GI50 (A549) | GI50 (SR) | GI50 (SF-295) | GI50 (OVCAR-5) | GI50 (NCI-H522) | GI50 (HOP-62) | GI50 (U-251)
1 | CCN(CC)c1nc(N(C)C)c2ccc(OC)cc2n1 | 14 µM (inactive) | 11.9 µM (inactive) | 17.1 µM (inactive) | 15.9 µM (inactive) | 12.4 | 4.12 µM (inactive) | 3.49 µM (inactive) | 11.6 µM (inactive) | 20 µM (inactive) | 3.95 µM (inactive) | 7.55 µM (inactive) | 17.2 µM (inactive) | 22.9 µM (inactive) | 19.7 µM (inactive) | 12.7 µM (inactive) | 17.2 µM (inactive) | 16.7 µM (inactive) | 11.7 µM (inactive) | 19.7 µM (inactive) | 20.2 µM (inactive)
2 | CCCCC(=C=C(C)CO)C1CCCN1C(=O)OC(C)(C)C (stereo not given) | 17.9 µM (inactive) | 16.8 µM (inactive) | 17 µM (inactive) | 16.5 µM (inactive) | 17.9 | 17.5 µM (inactive) | 12.3 µM (inactive) | 16.1 µM (inactive) | 23.3 µM (inactive) | 19.7 µM (inactive) | 15.4 µM (inactive) | 22.5 µM (inactive) | 21.8 µM (inactive) | 19 µM (inactive) | 15.1 µM (inactive) | 16.3 µM (inactive) | 21 µM (inactive) | 14.5 µM (inactive) | 20 µM (inactive) | 17.1 µM (inactive)
3 | COCC1OC(S(=O)(=O)c2ccccc2)C(O)C(OC)C1OC (stereo not given) | > 100 µM (inactive) | > 100 µM (inactive) | > 100 µM (inactive) | > 100 µM (inactive) | > 100 | > 100 µM (inactive) | > 100 µM (inactive) | > 100 µM (inactive) | > 100 µM (inactive) | > 100 µM (inactive) | > 100 µM (inactive) | > 100 µM (inactive) | > 100 µM (inactive) | > 100 µM (inactive) | > 100 µM (inactive) | > 100 µM (inactive) | > 100 µM (inactive) | > 100 µM (inactive) | > 100 µM (inactive) | > 100 µM (inactive)
4 | Cn1c(=O)c2c(nc3n(CCCCl)c(=O)ccn23)n(C)c1=O | > 100 µM (inactive) | > 100 µM (inactive) | > 100 µM (inactive) | > 100 µM (inactive) | > 100 | > 100 µM (inactive) | > 100 µM (inactive) | > 100 µM (inactive) | > 100 µM (inactive) | > 100 µM (inactive) | > 100 µM (inactive) | > 100 µM (inactive) | > 100 µM (inactive) | > 100 µM (inactive) | > 100 µM (inactive) | > 100 µM (inactive) | > 100 µM (inactive) | > 100 µM (inactive) | > 100 µM (inactive) | > 100 µM (inactive)
5 | O=C1C(Cl)=C(N2CCOCC2)C(=O)c2c(O)ccc(O)c21 | 10 µM (inactive) | 0.366 µM (active) | 0.216 µM (active) | 0.288 µM (active) | 0.155 | 0.233 µM (active) | 1.35 µM (inactive) | 0.316 µM (active) | 1.78 µM (inactive) | 1.46 µM (inactive) | 0.19 µM (active) | 0.839 µM (active) | 0.433 µM (active) | 1.98 µM (inactive) | 1.4 µM (inactive) | 1.64 µM (inactive) | 0.497 µM (active) | 0.286 µM (active) | 0.853 µM (active) | 0.925 µM (active)
6 | COc1c(C)c(C/C=C(\C)CCCCO[Si](c2ccccc2)(c2ccccc2)C(C)(C)C)c(OC)c(OC)c1OC | 28.8 µM (inactive) | 27 µM (inactive) | > 100 µM (inactive) | > 100 µM (inactive) | > 46.5 | > 46.5 µM (inactive) | > 46.5 µM (inactive) | 30.1 µM (inactive) | > 46.5 µM (inactive) | > 31.6 µM (inactive) | 20.6 µM (inactive) | > 83.9 µM (inactive) | 1.84 µM (inactive) | 21.4 µM (inactive) | 43.2 µM (inactive) | > 46.5 µM (inactive) | > 46.5 µM (inactive) | 50.5 µM (inactive) | 25.1 µM (inactive) | > 46.5 µM (inactive)
7 | COc1cc(C2c3cc(O)c(OC)cc3C3OCC2C3CO)ccc1O (stereo not given) | > 100 µM (inactive) | > 100 µM (inactive) | > 100 µM (inactive) | > 100 µM (inactive) | > 100 | > 100 µM (inactive) | > 100 µM (inactive) | > 100 µM (inactive) | > 100 µM (inactive) | > 100 µM (inactive) | > 100 µM (inactive) | > 100 µM (inactive) | > 100 µM (inactive) | > 100 µM (inactive) | > 100 µM (inactive) | > 100 µM (inactive) | > 100 µM (inactive) | > 100 µM (inactive) | > 100 µM (inactive) | > 100 µM (inactive)
8 | N=C(c1ccc(-c2cn3cc(C(=N)N4CCCC4)ccc3n2)cc1)N1CCCC1 | > 100 µM (inactive) | > 100 µM (inactive) | > 100 µM (inactive) | > 100 µM (inactive) | > 100 | > 100 µM (inactive) | > 100 µM (inactive) | > 100 µM (inactive) | > 100 µM (inactive) | > 100 µM (inactive) | > 100 µM (inactive) | > 100 µM (inactive) | > 100 µM (inactive) | > 100 µM (inactive) | > 100 µM (inactive) | > 100 µM (inactive) | > 100 µM (inactive) | > 100 µM (inactive) | > 100 µM (inactive) | > 100 µM (inactive)
9 | CC(ON(C(c1ccccc1)C(C)C)C(C)(C)C)c1ccccc1 (stereo not given) | 18.9 µM (inactive) | 23.1 µM (inactive) | 21.1 µM (inactive) | 18.4 µM (inactive) | 61.8 | 18.9 µM (inactive) | 15 µM (inactive) | 14.4 µM (inactive) | 18.5 µM (inactive) | 15.4 µM (inactive) | 17.3 µM (inactive) | 25.9 µM (inactive) | 21.7 µM (inactive) | 29.6 µM (inactive) | 23 µM (inactive) | 14.9 µM (inactive) | 16 µM (inactive) | 26.5 µM (inactive) | 19.4 µM (inactive) | 17 µM (inactive)
10 | O=C1C2CCN(CC2)C1CN1CCOCC1 (stereo not given) | 6.73 µM (inactive) | 1.96 µM (inactive) | 24.7 µM (inactive) | 17.5 µM (inactive) | 2.18 | 7.73 µM (inactive) | 2.33 µM (inactive) | 17.1 µM (inactive) | 18.7 µM (inactive) | 17.8 µM (inactive) | 1.79 µM (inactive) | 1.92 µM (inactive) | 2.16 µM (inactive) | 19.7 µM (inactive) | 6.1 µM (inactive) | 19.4 µM (inactive) | 5.53 µM (inactive) | 0.689 µM (active) | 18.5 µM (inactive) | 11 µM (inactive)
11 | C/C(=N\Nc1nc2cc(C(F)(F)F)ccc2s1)c1ccccn1 | 0.266 µM (active) | 0.291 µM (active) | 0.0555 µM (active) | 0.594 µM (active) | 0.0993 | 0.0422 µM (active) | 0.0264 µM (active) | 0.338 µM (active) | 0.968 µM (active) | 0.0431 µM (active) | 0.0442 µM (active) | 0.239 µM (active) | 0.0537 µM (active) | 0.593 µM (active) | 0.0624 µM (active) | 0.408 µM (active) | 2.47 µM (inactive) | 0.111 µM (active) | 2.41 µM (inactive) | 0.448 µM (active)
12 | Cc1c(-c2ccccc2)[nH]c2ccc(Cl)cc2c1=O | 8.87 µM (inactive) | 29.5 µM (inactive) | 19 µM (inactive) | 18 µM (inactive) | 28.7 | 40.8 µM (inactive) | 22 µM (inactive) | 13.3 µM (inactive) | > 100 µM (inactive) | 47.4 µM (inactive) | 70.6 µM (inactive) | 19.4 µM (inactive) | < 0.01 µM (active) | 0.0232 µM (active) | 12.2 µM (inactive) | 30.8 µM (inactive) | 61.9 µM (inactive) | 21.3 µM (inactive) | 19.1 µM (inactive) | 22.9 µM (inactive)
13 | O=C(CCc1cc(O)cc(O)c1)NCCc1cc(O)cc(O)c1 | > 100 µM (inactive) | > 100 µM (inactive) | > 100 µM (inactive) | > 100 µM (inactive) | > 100 | > 100 µM (inactive) | > 100 µM (inactive) | > 100 µM (inactive) | > 100 µM (inactive) | > 100 µM (inactive) | > 100 µM (inactive) | > 100 µM (inactive) | > 100 µM (inactive) | > 100 µM (inactive) | > 100 µM (inactive) | > 100 µM (inactive) | > 100 µM (inactive) | > 100 µM (inactive) | > 100 µM (inactive) | > 100 µM (inactive)
14 | O=C1Nc2ccc([N+](=O)[O-])cc2/C1=N/NC(=S)Nc1ccc([N+](=O)[O-])cc1 | 34.2 µM (inactive) | 20.5 µM (inactive) | 24.7 µM (inactive) | 18.5 µM (inactive) | 19 | 26.7 µM (inactive) | 35.9 µM (inactive) | 15.8 µM (inactive) | 26.2 µM (inactive) | 26.2 µM (inactive) | 36 µM (inactive) | 19.1 µM (inactive) | 21.6 µM (inactive) | 21.1 µM (inactive) | 30.2 µM (inactive) | 19.8 µM (inactive) | 28.7 µM (inactive) | 30.9 µM (inactive) | 22.6 µM (inactive) | 23.7 µM (inactive)
